System: Bacillus subtilis
Assay: Antibacterial activity against Bacillus subtilis ATCC 6633 after 24 hrs by microtiter plate assay
Type: functional

| Compound | LD99 [µg/mL] |
| --- | --- |
| CC[C@@]1(O)C[C@H](O)c2c(O)c3c(c(O)c2[C@H]1C(=O)OC)C(=O)c1cccc(O)c1C3=O | 0.8 |
| CCc1ccc2c(O)c3c(c(O)c2c1)C(=O)c1cccc(O)c1C3=O | 13 |
| COC(=O)Cc1cc2c(c(O)c1C(C)=O)C(=O)c1c(O)cccc1C2=O | 3 |
| COC(=O)[C@@H]1c2c(O)c3c(c(O)c2[C@@H](O)C[C@@]1(C)O)C(=O)c1c(O)cccc1C3=O | 6 |
| COC(=O)[C@@H]1c2c(O)c3c(c(O)c2[C@@H](O)C[C@]1(O)CC(C)=O)C(=O)c1c(O)cccc1C3=O | 13 |
| CCCCC(=O)c1c(CC(=O)OC)cc2c(c1O)C(=O)c1c(O)cccc1C2=O [BLANCHAQUINONE] | 6 |

Source: ChEMBL document CHEMBL1148926, “Blanchaquinone: a new anthraquinone from an Australian Streptomyces sp” (2004)
